Reference: patent US20160120979A1, “METHOD OF APPLYING A COMPOSITION AND PHARMACEUTICAL COMPOSITION WITH A REGIMEN OF ADMINISTERING IT” (priority 2013, published 2016)
≈ marks a conversion by molar mass, not a printed value. Where two headings read alike, the source gives them in different places.

Columns and labels:
[1] = test system: MU50 multidrug-resistant Staphylococcus aureus strain (MRSA); assay: Minimum inhibitory concentration (MIC) on MU50; type: cell-based
Source text: For some of the experimental tests MU50 bacteria were used. MU50 is a multidrug-resistant Staphylococcus aureus strain (MRSA). MRSA are bacteria which have naturally evolved under antibiotic selection pressure and which are known to be resistant to antibiotics including penicillins (methicillin, dicloxacillin, nafcillin, oxacillin, etc.) and cephalosporins. MU50 is additionally resistant to macrolides, quinolones and aminoglycosides.
The minimum inhibitory concentration (MIC), which inhibits the visible growth of a microorganism after an overnight incubation was determined for the following antibiotics: […]

[2] = test system: Staphylococcus aureus MU500; assay: Experiment 12: replication on antibiotic agar after pulsed 400 nm irradiation; type: cell-based; conditions: 24 hours incubation; for E: Staphylococcus aureus MU500 (no irradiation), replication: antibiotic 10 mg/l in MH agar; for F: Staphylococcus aureus MU500 (irradiation), replication: antibiotic 10 mg/l, 400 nm LED pulses 0.02 ms, 1 kHz, 10 minutes
Description: (§1) 15′000′000 multi-resistant bacteriae (0.050 ml of a McFarland of 1) were put on 40 mm diameter petri dishes. The petri dishes comprised MH agar with or without antibiotic.
(§2) The LED power during 0.02 ms was measured to be 0.63 W on a Thorlabs power sensor with a surface area of 2.2×2.2 mm representing a power of 13 mW/cm^2.

[3] = test system: Acinetobacter; type: cell-based; conditions: for D Acinetobacter (irradiation), replication, second treatment / C: Acinetobacter (no irradiation), replication, second treatment: remaining bacteria of experiment 12 proliferated and treated again
Description: as §1, §2
(§3) After the irradiation treatment according to experiment 12, remaining bacteria were allowed to proliferate and then were subject to the treatment according to experiment 12 again in order to test for possible new resistances to the treatment. The values in the following table are designated as in experiment 12: […]

[4] = test system: Staphylococcus aureus MU500; type: cell-based
Description: as §1, §2, §3

[5] = test system: Pseudomonas aeruginosa; assay: Experiment 12: replication on antibiotic agar after pulsed 400 nm irradiation; type: cell-based; conditions: 24 hours incubation; for A: Pseudomonas aeruginosa (no irradiation), replication: antibiotic 10 mg/l in MH agar; for B: Pseudomonas aeruginosa (irradiation), replication: antibiotic 10 mg/l, 400 nm LED pulses 0.02 ms, 1 kHz, 10 minutes
Description: as §1
(§4) […]. The LED power during 0.02 ms was measured to be 0.63 W on a Thorlabs power sensor with a surface area of 2.2×2.2 mm representing a power of 13 mW/cm^2.

[6] = test system: Acinetobacter; assay: as above; type: cell-based; conditions: 24 hours incubation; for C: Acinetobacter (no irradiation), replication: antibiotic 10 mg/l in MH agar; for D Acinetobacter (irradiation), replication: antibiotic 10 mg/l, 400 nm LED pulses 0.02 ms, 1 kHz, 10 minutes
Description: as §1, §4

[7] = test system: MU 50 multi-resistant bacteria; assay: Experiment 7: growth of MU50 after pulsed 400 nm photo-activation of antibiotics; type: cell-based, Staphylococcus aureus
Description: (§5) In Experiments 7 to 9 the effect of some exemplary photo-activated antibiotics is tested on two different multi resistant bacterial strains:
In Experiment 7 MU 50 multi-resistant bacteria as described above for Experiments 1 to 3 were tested.
(§6) G→Pulse ON 5 ms energy 0.05 J, OFF 45 ms during 10 minutes
(§7) The following experimental procedure are the same for experiments 7, 8 and 9: The bacterial cells were grown in Mueller Hinton Broth in the presence of an antibiotic at a concentration according to the table below until they reached turbidity of 1 according to the McFarland Standard (=3×10^8 bacteria/ml):
(§8) For each antibiotic two patterns of pulsed exposure for photo-activation were applied and a control without exposure to radiation. For example in experiment 7 and 8, pulse ON 10 ms energy 0.1 J, OFF 90 ms during 10 minutes and pulse ON 5 ms energy 0.05 J, OFF 45 ms i.e. in both treatments a 10% ON and a 90% OFF pattern and both for a duration of 10 minutes.
(§9) Incubation for 2 to up 36 hours at 37° C. until time=t2
(§10) At time=t2 one of the antibiotics is added to obtain the same concentration of antibiotic as during the original growth phase prior to time t1=0 as listed in the table above.
(§11) Incubation for further 2 to 4 hours at 37° C. in the presence of antibiotic until time=t3.
(§12) The absorbance value correlates to the colloidal effect and the number of bacteria in the sample.
(§13) These tables below list for each bacterial sample the difference in absorption values representing the difference in the number of bacteria present in each sample by subtracting the absorption values at time t4, which is the last measurement of the growth curve presented in FIGS. 3 to 5 from the last absorption value before the treatment with light at time t3. The values of A and G represent the effect of the treatment of the bacterial samples with two different light patterns for activation of the antibiotic as described above. The values of D correspond to the control samples without photo-activation of the antibiotic: […]

[8] = test system: PA01 Pseudamonas aeruginosa MultiR genetically modified bacteria; assay: Experiment 9: growth of PA01 after pulsed 400 nm photo-activation, shorter pulses; type: cell-based; conditions: antibiotic concentration per the 13th table
Description: as §5
(§14) In Experiment 8 and 9 PA01 Pseudamonas aeruginosa MultiR genetically modified bacteria were tested. This PA01 strain is genetically modified with a quinolone pump and conferring resistance to antibiotics of the quinolone group of antibiotics.
A→Pulse ON 3 ms energy 0.03 J, OFF 27 ms during 10 minutes
G→Pulse ON 1 ms energy 0.01 J, OFF 9 ms during 10 minutes
as §7, §8, §9, §10, §11, §12, §13

[9] = test system: PA01 Pseudamonas aeruginosa MultiR genetically modified bacteria; assay: Experiment 8: growth of PA01 after pulsed 400 nm photo-activation of antibiotics; type: cell-based; conditions: antibiotic concentration per the 12th table
Description: as §5, §14, §6, §7, §8, §9, §10, §11, §12, §13

[10] = Staphylococcus aureus, MRSA, overnight incubation, read-out: MIC
[11] = remaining bacteria of experiment 12 proliferated and treated again
[12] = A: 400 nm LED pulse ON 3 ms energy 0.03 J, OFF 27 ms during 10 minutes
[13] = G: 400 nm LED pulse ON 1 ms energy 0.01 J, OFF 9 ms during 10 minutes
[14] = A: 400 nm LED pulse ON 10 ms energy 0.1 J, OFF 90 ms during 10 minutes
[15] = G: 400 nm LED pulse ON 5 ms energy 0.05 J, OFF 45 ms during 10 minutes
[16] = A: 400 nm LED pulse ON 10 ms energy 0.1 J, OFF 90 ms during 10 minutes, antibiotic concentration per the 11th table, approx. ten hours after t3
[17] = D: control no pulse, antibiotic concentration per the 11th table
[18] = G: 400 nm LED pulse ON 5 ms energy 0.05 J, OFF 45 ms during 10 minutes, antibiotic concentration per the 11th table
[19] = second treatment according to experiment 12

Compound	E: Staphylococcus aureus MU500 (no irradiation), replication [2]	A: Pseudomonas aeruginosa (no irradiation), replication [5]	B: Pseudomonas aeruginosa (irradiation), replication [5]	C: Acinetobacter (no irradiation), replication [6]	D Acinetobacter (irradiation), replication [6]	F: Staphylococcus aureus MU500 (irradiation), replication [2]	difference in absorption values (595-600 nm) between t4 and t3 [9, 14]	difference in absorption values (595-600 nm) between t4 and t3 ([9]; D: control no pulse)	difference in absorption values (595-600 nm) between t4 and t3 [9, 15]	MIC ([1]; overnight incubation)	further results
O=C(O)c1cn(C2CC2)c2cc(N3CCNCC3)c(F)cc2c1=O [Ciprofloxacin]	R (Bacteria can replicate after the treatment)	R (Bacteria can replicate after the treatment)	NR (No replication)	R (Bacteria can replicate after the treatment)	NR (No replication)						MIC [1, 10]: > 16 µg/mL; D Acinetobacter (irradiation), replication, second treatment [3]: NR (No replication); C: Acinetobacter (no irradiation), replication, second treatment [3]: R (Bacteria can replicate after the treatment); E: Staphylococcus aureus MU500 (no irradiation), replication, second treatment [4, 11]: R (Bacteria can replicate after the treatment)
CC[C@H]1OC(=O)[C@H](C)[C@@H](O[C@H]2C[C@@](C)(OC)[C@@H](O)[C@H](C)O2)[C@H](C)[C@@H](O[C@@H]2O[C@H](C)C[C@H](N(C)C)[C@H]2O)[C@](C)(OC)C[C@@H](C)C(=O)[C@H](C)[C@@H](O)[C@]1(C)O [Clarithromycin]	R (Bacteria can replicate after the treatment)	R (Bacteria can replicate after the treatment)	PR (Bacteria can replicate partially)	R (Bacteria can replicate after the treatment)	R (Bacteria can replicate after the treatment)	R (Bacteria can replicate after the treatment)	0.0106	0.1041	−0.0396		difference in absorption values (595-600 nm) between t4 and t3 [7]: 0.0956; difference in absorption values (595-600 nm) between t4 and t3 ([7]; 10 min): −0.1383; difference in absorption values (595-600 nm) between t4 and t3 ([7]; 10 h): −0.1249; difference in absorption values (595-600 nm) between t4 and t3 [8, 12]: −0.1708; difference in absorption values (595-600 nm) between t4 and t3 ([8]; D: control no pulse): −0.0024; difference in absorption values (595-600 nm) between t4 and t3 [8, 13]: −0.0994
C[C@H]1c2cccc(O)c2C(=O)C2=C(O)[C@]3(O)C(=O)C(C(N)=O)=C(O)[C@@H](N(C)C)[C@@H]3[C@@H](O)[C@@H]21 [Doxycycline]	R (Bacteria can replicate after the treatment)	R (Bacteria can replicate after the treatment)	NR (No replication)	R (Bacteria can replicate after the treatment)	NR (No replication)	NR (No replication)	−0.0365	0.0735	0.0181		difference in absorption values (595-600 nm) between t4 and t3 [7, 16]: −0.083; difference in absorption values (595-600 nm) between t4 and t3 [7, 17]: 0.0072; difference in absorption values (595-600 nm) between t4 and t3 [7, 18]: −0.0429; D Acinetobacter (irradiation), replication, second treatment [3]: NR (No replication); C: Acinetobacter (no irradiation), replication, second treatment [3]: R (Bacteria can replicate after the treatment); resistance to the treatment of the second generation resistant bacteria [3, 19]: no resistance to the treatment; F: Staphylococcus aureus MU500 (irradiation), replication, second treatment ([4]; remaining bacteria of experiment 12 proliferated and treated again, irradiation): NR (No replication); E: Staphylococcus aureus MU500 (no irradiation), replication, second treatment [4, 11]: R (Bacteria can replicate after the treatment); resistance to the treatment of the second generation resistant bacteria [4, 19]: no resistance to the treatment
CCn1cc(C(=O)O)c(=O)c2cc(F)c(N3CCNCC3)cc21 [Norfloxacin]	R (Bacteria can replicate after the treatment)	R (Bacteria can replicate after the treatment)	NR (No replication)	R (Bacteria can replicate after the treatment)	NR (No replication)	PR (Bacteria can replicate partially)	−0.0491	0.0039	−0.1879		difference in absorption values (595-600 nm) between t4 and t3 [7, 16]: −0.1198; difference in absorption values (595-600 nm) between t4 and t3 [7, 17]: −0.1119; difference in absorption values (595-600 nm) between t4 and t3 [7, 18]: −0.0589
Cc1onc(-c2ccccc2)c1C(=O)N[C@@H]1C(=O)N2[C@@H]1SC(C)(C)[C@@H]2C(=O)O [Oxacillin]											MIC [1, 10]: > 32 µg/mL
CO[C@H]1/C=C/O[C@@]2(C)Oc3c(C)c(O)c4c(O)c(c(/C=N/N5CCN(C)CC5)c(O)c4c3C2=O)NC(=O)/C(C)=C\C=C\[C@H](C)[C@H](O)[C@@H](C)[C@@H](O)[C@@H](C)[C@H](OC(C)=O)[C@@H]1C [Rifampicin]							0.0137	0.0679	−0.0678		difference in absorption values (595-600 nm) between t4 and t3 [7]: −0.0542; difference in absorption values (595-600 nm) between t4 and t3 ([7]; 10 min): −0.0914; difference in absorption values (595-600 nm) between t4 and t3 ([7]; 10 h): −0.1027; difference in absorption values (595-600 nm) between t4 and t3 [8, 12]: −0.0808; difference in absorption values (595-600 nm) between t4 and t3 ([8]; D: control no pulse): 0.0562; difference in absorption values (595-600 nm) between t4 and t3 [8, 13]: −0.0196
CN[C@H](CC(C)C)C(=O)N[C@H]1C(=O)N[C@@H](CC(N)=O)C(=O)N[C@H]2C(=O)N[C@H]3C(=O)N[C@H](C(=O)N[C@H](C(=O)O)c4cc(O)cc(O)c4-c4cc3ccc4O)[C@H](O)c3ccc(c(Cl)c3)Oc3cc2cc(c3O[C@@H]2O[C@H](CO)[C@@H](O)[C@H](O)[C@H]2O[C@H]2C[C@](C)(N)[C@H](O)[C@H](C)O2)Oc2ccc(cc2Cl)[C@H]1O [Vancomycin]											MIC ([1]; Staphylococcus aureus, MRSA): 8 µg/mL (≈ 5.52 µM)
Gentamicin										>16 µg/mL	
Penicillin										>8 µg/mL	
Teicopanin										8 µg/mL	
